Assay results reported in patent publication US8394971B2, “Indole derivatives as selective androgen receptor modulators (SARMS)” (Janssen Pharmaceutica N.V., priority 2004, dated 2013).
pIC50: −log10 of the molar value. Where “and” joins values, the source holds several entries; their conditions need not be identical. Equal values may be shown once.

How the values were obtained:
[1] = test system: testosterone-enhanced ventral prostate and seminal vesicle weights in castrated male Sprague Dawley rats; assay: Ventral Prostate and Seminal Vesicle Weight In Vivo Assay; parameters: species or system rat; details: immature castrated rats; once daily for five days, usually orally at 40 mg/kg, with testosterone propionate 2 mg/kg s.c.
How it was run: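 Immature (~50 g) castrated Sprague Dawley rats dosed once daily for five days with compound (usually oral, 40 mg/kg, cyclodextrin or methylcellulose vehicle) plus testosterone propionate 2 mg/kg s.c. Wet ventral prostate and seminal vesicle weights taken on day six; activity judged by prostate weight or body-weight-adjusted % inhibition.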

[2] = biological target: T1, androgen receptor (adenovirus AdEasy+rAR in COS-7 cells) (Rattus norvegicus, UniProt P15207); assay: COS-7 Whole-Cell Androgen Receptor Binding Assay, Adenovirus Transduction; details: COS binding; for inhibition at 3 µM / % Inhibition: 3000 nM unless otherwise noted
T1 construct: expressed in transfected cells
T1 sequence (P15207 1-902): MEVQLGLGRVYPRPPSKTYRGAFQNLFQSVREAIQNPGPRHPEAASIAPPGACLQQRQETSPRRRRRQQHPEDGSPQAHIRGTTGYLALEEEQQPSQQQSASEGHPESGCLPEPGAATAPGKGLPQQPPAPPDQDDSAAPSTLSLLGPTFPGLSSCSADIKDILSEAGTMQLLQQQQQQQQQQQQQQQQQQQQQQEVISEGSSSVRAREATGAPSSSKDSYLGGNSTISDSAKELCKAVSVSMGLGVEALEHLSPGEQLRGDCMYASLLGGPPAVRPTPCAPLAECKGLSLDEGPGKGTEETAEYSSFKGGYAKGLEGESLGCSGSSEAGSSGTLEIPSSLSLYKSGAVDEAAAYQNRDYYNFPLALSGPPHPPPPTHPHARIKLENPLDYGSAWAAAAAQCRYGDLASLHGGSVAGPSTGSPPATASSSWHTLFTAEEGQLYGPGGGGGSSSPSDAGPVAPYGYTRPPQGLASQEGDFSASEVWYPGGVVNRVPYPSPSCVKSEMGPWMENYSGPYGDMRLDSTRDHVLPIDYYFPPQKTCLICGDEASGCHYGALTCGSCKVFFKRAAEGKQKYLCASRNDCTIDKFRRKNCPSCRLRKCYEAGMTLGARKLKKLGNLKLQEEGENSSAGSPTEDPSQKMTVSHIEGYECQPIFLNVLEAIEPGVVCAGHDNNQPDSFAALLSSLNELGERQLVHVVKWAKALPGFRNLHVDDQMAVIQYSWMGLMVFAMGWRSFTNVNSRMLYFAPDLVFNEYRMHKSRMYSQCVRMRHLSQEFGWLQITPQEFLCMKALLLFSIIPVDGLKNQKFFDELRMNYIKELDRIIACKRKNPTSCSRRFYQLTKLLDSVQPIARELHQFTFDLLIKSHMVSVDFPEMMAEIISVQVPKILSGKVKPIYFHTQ
Method: COS-7 cells were plated in 96-well plates at 20,000 cells per well, in a solution of DMEM/F12 (GIBCO) containing 10% (v/v) charcoal-treated fetal bovine serum (Hyclone) and lacking phenol red. The cells were then incubated overnight at 37° C. in 5% (v/v) humidified CO2.
Test compound solutions were prepared by diluting the test compound in 100% (v/v) DMSO, if necessary.
Next, 1 mL of DMEM/F12 lacking phenol red was pipetted into each of the wells of a 2-mL 96-well assay block. […] The wells were carefully mixed by pipette.
In a 15 mL or 50 mL sterile centrifuge tube, a dilution in DMEM/F12 of the adenovirus AdEasy+rAR at a moi of 1:50 per well was prepared.
The medium was removed from the 96-well plates by inversion and the plates dried very briefly, inverted, on a sterile towel. As soon as possible after medium removal, 40 μL of the diluted test compound was added to each well, in duplicate. […] The plates were then incubated for 48 hours at 37° C. in 5% (v/v) humidified CO2.
The medium was removed from the above incubated plates by inversion and dried. Each well was then washed with 0.35 mL of 1×PBS. The PBS was then removed from the plates by inversion and the plates dried.
To each well was then added 50 μL of 0.5% (v/v) Triton X-100 (Sigma) in 1×PBS and the plates placed on a rotary shaker for 5 min. The contents of each well were then transferred to an OptiPlate-96 (Packard) scintillation plate. To each well was then added 0.2 mL of Microscint-20 (Packard) and the wells counted on a TopCount (Packard).
[…] Counts per well were measured and percents of inhibition determined. […] Counts per well were measured and IC50s determined by linear regression.

[3] = biological target: T2, androgen receptor (adenovirus AdEasy+rAR in L929 cells) (Rattus norvegicus, UniProt P15207); assay: L929 Androgen Receptor Functional Assay, Adenovirus Transduction; format: cell-based; details: for % Activity: L929 agonist testing
T2 construct: expressed in transfected cells
T2 sequence (P15207 1-902): T1 sequence (P15207 1-902)
Method: L929 cells were plated in 96-well plates at 20,000 cells per well, in DMEM/F12 (GIBCO) containing 10% (v/v) charcoal-treated fetal bovine serum (Hyclone) and lacking phenol red. The plates were then incubated overnight at 37° C. in 5% (v/v) humidified CO2.
Test compound dilutions were prepared in 100% (v/v) DMSO, if necessary. Each dilution was made to 1250× the final desired assay concentration.
First, 2 mL of DMEM/F12 lacking phenol red was pipetted into the wells of a 2-mL 96-well assay block. Next, 4 μL of the 1250× test compound dilutions were pipetted into each well of the assay block. The mixtures within the well were then carefully mixed by pipette.
In a 15 mL or 50 mL sterile centrifuge tube, a 2.5 nM (2.5×) dilution of R1881 (methyl-trienolone) in DMEM/F12 lacking phenol red was prepared.
In a second 15 mL or 50 mL centrifuge tube a solution containing an equal volume of DMEM to the first and an equal volume of 100% (v/v) DMSO to the volume of R1881 used in the first tube was prepared.
In a 15 mL or 50 mL sterile centrifuge tube, a dilution in DMEM/F12 of the adenovirus AdEasy+rAR at an moi of 1:500 per well was prepared.
The medium was removed from the 96-well plates by inversion and dried, inverted, very briefly. As soon as possible after medium removal, 40 μL of the diluted unlabeled test compound was added to each well, in duplicate. To each well designated for antagonist testing was added 40 μL of the 2.5 nM R1881 dilution to the wells for antagonist testing. To each well designated for agonist testing was added 40 μL of the DMSO dilution. Then 20 μL of the diluted adenovirus were added to all wells. The plates were incubated for 48 hours at 37° C. in 5% (v/v) humidified CO2.
To each well was added 100 μL of Steady-Glo luciferase assay substrate (Promega) and the plates were placed on a rotary shaker for 1 min. The plates were then incubated at room temperature in the dark for one hour. The contents of each well were then transferred to a white microtiter plate (Packard) and read on a Luminoskan Ascent (Thermo Lab Systems).
L929 AR percent activity was determined by testing dilutions of the test compound using a concentration of 3000 nM unless otherwise noted. L929 percent inhibition was determined by testing dilutions of the test compound using a concentration of 3000 nM. […] Luciferase activity per well were measured and EC50s and IC50s determined by linear regression.

Compound	active / inactive (inhibition of testosterone-enhanced prostate weight) [1]	inhibition at 3 µM [2] [%]	% Activity ([3]; @ 8000 nM)	% Inhibition [2]	% Activity ([3]; 3000 nM, 3 µM)	% Activity ([3]; 3000 nM) [%]	pIC50 ([2]; read-out: IC50)	inhibition at 3 µM ([3]; L929, L929 antagonist testing with R1881, 3000 nM) [%]
CCSCC(C)(O)c1cc2cc(C#N)c(C(F)(F)F)cc2[nH]1 (stereo not shown) [compound 209]	active	61	−3 @ 8000 nM %	–	–	–	–	–
CCSCC(C)(O)c1cc2cc([N+](=O)[O-])c(C(F)(F)F)cc2n1C (single isomer, unassigned) [compound 231]	active	73	–	78%	0% and −1%	–	–	–
COc1ccc(SCC(C)(O)c2cc3cc(Cl)c(C(F)(F)F)cc3[nH]2)cc1 (stereo not shown) [compound 131]	inactive	84	–	–	–	−5	–	–
CCC(O)(CS(=O)(=O)CC)c1cc2cc([N+](=O)[O-])c(C(F)(F)F)cc2[nH]1 (stereo not shown) [compound 176]	active	75	–	–	–	3	–	–
CC(O)(CSCC(F)(F)F)c1cc2cc(Cl)c(C(F)(F)F)cc2[nH]1 (stereo not shown) [compound 190]	active	100	–	–	–	1	–	–
CSCC(C)(O)c1cc2cc([N+](=O)[O-])c(C(F)(F)F)cc2[nH]1 (stereo not shown) [compound 139]	active	94	–	97%	0% and 1%	–	–	–
CC(O)(CSCc1ccccc1)c1cc2cc([N+](=O)[O-])c(C(F)(F)F)cc2[nH]1 (stereo not shown) [compound 160]	inactive	84	–	–	–	1	–	–
CC(O)(CSCC(F)(F)F)c1cc2cc([N+](=O)[O-])c(C(F)(F)F)cc2[nH]1 (stereo not shown) [compound 171]	active	92	−1 @ 8000 nM %	94%	11%	–	–	–
CC(C)SCC(C)(O)c1cc2cc([N+](=O)[O-])c(C(F)(F)F)cc2[nH]1 (stereo not shown) [compound 164]	inactive	68	–	–	–	2	–	–
CC[S+]([O-])CC(C)(O)c1[nH]c2cc(C(F)(F)F)c(C#N)cc2c1C (stereo not shown) [compound 252]	active	68	–	–	–	1	< 5.52	65
CCSCC(C)(O)c1cc2cc(C#N)c(C(F)(F)F)cc2n1C (stereo not shown) [compound 236]	active	83	–	–	–	2	–	–
CC(O)(CSCC(F)(F)F)c1cc2cc(F)c(C(F)(F)F)cc2[nH]1 (stereo not shown) [compound 189]	inactive	100	–	–	–	3	–	–
CC(O)(CS(=O)(=O)c1ccc(N)cc1)c1cc2cc(Cl)c(C(F)(F)F)cc2[nH]1 (stereo not shown) [compound 118]	inactive	62	−2 @ 8000 nM %	–	–	–	–	–
CN(C)c1ccccc1SCC(C)(O)c1cc2cc(Cl)c(C(F)(F)F)cc2[nH]1 (stereo not shown) [compound 127]	inactive	–	–	41% and 74%	–	−5	–	–
CCSCC(C)(O)c1cc2cc(F)c(C(F)(F)F)cc2[nH]1 (stereo not shown) [compound 159]	active	90	–	–	–	2	–	–
CCSCC(C)(O)c1[nH]c2cc(C(F)(F)F)c(C#N)cc2c1C (single isomer, unassigned) [Compound #234, 2-(2-Ethylsulfanyl-1-hydroxy-1-methyl-ethyl)-3-methyl-6-trifluoromethyl-1H-indole-5-carbonitrile]	inactive	–	–	71%	−1%	–	–	–
CCS(=O)(=O)C[C@](C)(O)c1cc2cc([N+](=O)[O-])c(C(F)(F)F)cc2[nH]1 [Compound #156, 1-Ethanesulfonyl-2-(5-nitro-6-trifluoromethyl-1H-indol-2-yl)-propan-2-ol]	inactive	42	–	52%	–	2	–	–
CCC(O)(CS(=O)(=O)CC(F)(F)F)c1[nH]c2cc(C(F)(F)F)c([N+](=O)[O-])cc2c1Cl (stereo not shown) [compound 199]	inactive	82	–	–	–	2	–	–
